Measured values published in publication PMC11945486, “TAS1R2/TAS1R3 Single-Nucleotide Polymorphisms Affect Sweet Taste Receptor Activation by Sweeteners: The SWEET Project” (Nutrients, 2025).
No end group written: not given here.

T1: human TAS1R2-K689Q/TAS1R3-WT (Homo sapiens, UniProt Q7RTX0+Q8TE23, K689Q)
T1 construct: expressed in transfected cells; host or cells: HEK293T-Gα16gust44
T1 sequence (Q8TE23 20-839 K689Q): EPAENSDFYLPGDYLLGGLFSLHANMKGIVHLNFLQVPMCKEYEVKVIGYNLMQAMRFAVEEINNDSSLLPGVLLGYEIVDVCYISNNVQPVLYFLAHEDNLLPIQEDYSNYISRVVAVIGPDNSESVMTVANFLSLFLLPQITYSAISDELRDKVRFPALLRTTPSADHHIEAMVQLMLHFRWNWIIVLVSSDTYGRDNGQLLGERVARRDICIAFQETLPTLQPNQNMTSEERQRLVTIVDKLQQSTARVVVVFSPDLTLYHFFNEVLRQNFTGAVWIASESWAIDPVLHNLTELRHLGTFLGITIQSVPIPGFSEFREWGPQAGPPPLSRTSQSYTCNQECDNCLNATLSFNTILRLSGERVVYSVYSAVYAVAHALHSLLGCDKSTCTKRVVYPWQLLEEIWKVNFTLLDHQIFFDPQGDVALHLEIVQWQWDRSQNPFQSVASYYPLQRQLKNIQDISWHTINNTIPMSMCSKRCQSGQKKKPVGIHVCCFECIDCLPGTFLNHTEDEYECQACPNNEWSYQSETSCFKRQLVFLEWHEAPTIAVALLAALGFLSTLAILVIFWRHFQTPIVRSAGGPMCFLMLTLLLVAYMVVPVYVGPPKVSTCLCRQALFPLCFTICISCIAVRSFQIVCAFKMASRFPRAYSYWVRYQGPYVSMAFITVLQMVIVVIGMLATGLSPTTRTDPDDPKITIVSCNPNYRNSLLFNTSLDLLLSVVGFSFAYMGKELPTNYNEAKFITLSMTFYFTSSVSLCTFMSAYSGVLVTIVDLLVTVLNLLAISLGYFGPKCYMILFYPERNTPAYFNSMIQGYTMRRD
T1 sequence (Q7RTX0 21-852): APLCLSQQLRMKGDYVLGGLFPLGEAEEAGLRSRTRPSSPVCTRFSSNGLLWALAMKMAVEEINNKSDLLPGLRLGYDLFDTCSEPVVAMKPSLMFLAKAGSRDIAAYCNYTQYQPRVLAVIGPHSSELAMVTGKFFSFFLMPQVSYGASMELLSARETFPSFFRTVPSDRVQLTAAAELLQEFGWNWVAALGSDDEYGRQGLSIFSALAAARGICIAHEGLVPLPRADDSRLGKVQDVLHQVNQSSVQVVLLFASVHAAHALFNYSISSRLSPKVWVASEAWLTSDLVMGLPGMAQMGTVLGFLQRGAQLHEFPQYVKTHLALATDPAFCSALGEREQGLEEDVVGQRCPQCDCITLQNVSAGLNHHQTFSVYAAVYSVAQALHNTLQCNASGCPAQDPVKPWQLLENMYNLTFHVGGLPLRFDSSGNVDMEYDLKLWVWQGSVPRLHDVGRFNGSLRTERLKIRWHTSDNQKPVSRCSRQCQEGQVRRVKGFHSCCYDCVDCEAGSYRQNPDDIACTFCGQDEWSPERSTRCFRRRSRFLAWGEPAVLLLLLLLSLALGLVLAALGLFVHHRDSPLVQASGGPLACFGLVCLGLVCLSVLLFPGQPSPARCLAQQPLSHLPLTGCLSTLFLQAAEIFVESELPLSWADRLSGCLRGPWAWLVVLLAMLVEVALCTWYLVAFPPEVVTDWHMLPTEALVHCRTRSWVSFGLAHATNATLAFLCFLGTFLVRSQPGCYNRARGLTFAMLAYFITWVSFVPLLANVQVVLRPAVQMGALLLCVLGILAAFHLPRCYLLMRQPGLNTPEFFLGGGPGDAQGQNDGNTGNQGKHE

B1: thaumatin (protein)
chain: ATFEIVNRCSYTVWAAASKGDAALDAGGRQLNSGESWTINVEPGTKGGKIWARTDCYFDDSGSGICKTGDCGGLLRCKRFGRPPTTLAEFSLNQYGKDYIDISNIKGFNVPMDFSPTTRGCRGVRCAADIVGQCPAKLKAPGGGCNDACTVFQTSEYCCTTGKCGPTEYSRFFKRLCPDAFSYVLDKPTTVTCPGSSNYRVTFCPTA
modifications: Eight disulfides
notes: sweet-tasting plant protein, E957

Target: T1, human TAS1R2-K689Q/TAS1R3-WT
Test: Calcium mobilisation assay, TAS1R2 variant K689Q with TAS1R3-WT
Format: cell-based
Settings: "-": no activation; for Max ΔF/F0: maximal signal amplitude; for EC50: "nd": not determined
Excerpt: The coding sequences for TAS1R2 and TAS1R3 were commercially synthesised, and the human codon was optimised for expression in human cells. The coding sequences of human TAS1R2 and TAS1R3 were subcloned and inserted into the mammalian expression vectors pcDNA6/myc-HisA and pcDNA4/myc-HisA (Invitrogen; Thermo Fisher Scientific; Illkirch, France) between the EcoRI and NotI restriction sites, generating the plasmids pcDNA6-TAS1R2 and pcDNA4-TAS1R3, respectively. To increase protein expression in mammalian cells, an upstream start codon was used, which was a sequence called MAX, corresponding to the QBI SP163 element also described in pcDNA4-HisMax (Invitrogen; Thermo Fisher Scientific; Illkirch, France). To measure the expression level of the receptor by immunohistochemistry, we used the FLAG sequence ([…]) in the C-terminal position, which encodes the FLAG tag epitope. SNP variants of TAS1R2 and TAS1R3 were constructed based on […], respectively, using site-directed mutagenesis (Genewiz; Leipzig, Germany).
The HEK293T cells were kindly provided by Jay P. Slack (Givaudan Flavors Corporation; Cincinnati, OH, USA). HEK293T cells stably transfected with Gα16gust44 [43, 67] were seeded in poly-D-lysine-coated clear-bottom black 96-well plates (0.35 × 10^5 cells/well) in high-glucose DMEM supplemented with 2 mM GlutaMAX, 10% dialysed foetal bovine serum with penicillin/streptomycin and G418 (400 μg/mL) at 37 °C and 6.3% CO2 in a humidified atmosphere as previously reported. […] As a negative control, HEK293T cells were mock-transfected with the empty expression vector. After a further 24 h of incubation, the HEK293T cells were washed with C1 buffer (130 mM NaCl, 5 mM KCl, 10 mM HEPES pH 7.4 and 2 mM CaCl2). The 96-well plates containing the cells were then stimulated with sweet-tasting compounds. […] Different concentration ranges were tested depending on the sweet compound injected. The Ca^2+ changes were expressed as fractional changes in fluorescent light intensity: ΔF/F = (F − F0)/F0, where F was the fluorescent light intensity at each point, and F0 was the value of emitted fluorescent light prior to stimulus application. To calculate dose–response relationships, the changes in fluorescence upon stimulus application were averaged, mock-subtracted and baseline-corrected. The dose–response data obtained were adjusted using a 4-parameter logistic equation. The half-maximal effective concentrations (EC50 values) and maximal signal amplitudes were calculated using SigmaPlot software (version 15.0) (Systat Software; San Jose, CA, USA).
For in vitro calcium mobilisation assay performed on hTAS1R2-SNPs, hTAS1R3-SNPs and mTAS1R3-I60T, 6 to 7 concentrations were tested for each sweet compound, plus buffer alone. All concentration–receptor combinations were measured in duplicate, and each experiment was repeated at least 4 times (8 wells/concentration). Results were expressed for each concentration as ΔF/F mean ± SEM and represented as dose–response curves.

| Molecule | R1 = Variant EC50/WT EC50 | Max ΔF/F0 | EC50 [µM] |
| --- | --- | --- | --- |
| CC1=CC(=O)NS(=O)(=O)O1 [Acesulfame K, acesulfame K] | 4.3 | 0.02 |  |
| O=S(=O)(O)NC1CCCCC1 [Cyclamate, cyclamate] |  |  | 5010 ± 220 |
| C[C@H](CC[C@@H](O[C@@H]1O[C@H](CO[C@@H]2O[C@H](CO)[C@@H](O)[C@H](O)[C@H]2O)[C@@H](O)[C@H](O)[C@H]1O[C@@H]1O[C@H](CO)[C@@H](O)[C@H](O)[C@H]1O)C(C)(C)O)[C@H]1CC[C@@]2(C)[C@@H]3CC=C4[C@@H](CC[C@H](O[C@@H]5O[C@H](CO[C@@H]6O[C@H](CO)[C@@H](O)[C@H](O)[C@H]6O)[C@@H](O)[C@H](O)[C@H]5O)C4(C)C)[C@]3(C)[C@H](O)C[C@]12C [Mogroside V, mogroside V] | 3.3 | 0.54 ± 0.01 | 57.9 ± 0.4 |
| COc1ccc(CCC(=O)c2c(O)cc(O[C@@H]3O[C@H](CO)[C@@H](O)[C@H](O)[C@H]3O[C@@H]3O[C@@H](C)[C@H](O)[C@@H](O)[C@H]3O)cc2O)cc1O [NHDC, neohesperidin dihydrochalcone] |  |  | > 1000 |
| COC(=O)[C@H](Cc1ccccc1)NC(=O)[C@H](CC(=O)O)NCCC(C)(C)C [Neotame] | 4.3 | 0.12 ± 0.01 | 3.58 ± 0.46 |
| C=C(C)[C@@H]1CC=C(/C=N/O)CC1 [Perillartine, perillartine] | 7.6 | 1.36 ± 0.01 | 132 ± 16.9 |
| C=C1C[C@@]23CC[C@H]4[C@@](C)(CCC[C@@]4(C)C(=O)O[C@@H]4O[C@H](CO)[C@@H](O)[C@H](O[C@@H]5O[C@H](CO)[C@@H](O)[C@H](O)[C@H]5O)[C@H]4O[C@@H]4O[C@H](CO)[C@@H](O)[C@H](O)[C@H]4O)[C@@H]2CC[C@]1(O[C@@H]1O[C@H](CO)[C@@H](O)[C@H](O[C@@H]2O[C@H](CO)[C@@H](O)[C@H](O)[C@H]2O)[C@H]1O[C@@H]1O[C@H](CO)[C@@H](O)[C@H](O)[C@H]1O)C3 [Rebaudioside M, rebaudioside M] | 4.5 | 0.36 ± 0.01 | 75.8 ± 2.3 |
| OC[C@H]1O[C@H](O[C@]2(CCl)O[C@H](CCl)[C@@H](O)[C@@H]2O)[C@H](O)[C@@H](O)[C@H]1Cl [Sucralose] | 3.4 | 0.08 ± 0.01 | 307 |
| brazzein (QDKCKKVYENYPVSKCQLANQCNYDCKLDKHARSGECFYDEKRNLQCICDYCEY; ends and bridges not checked; cysteine pairing not given here; UniProt P56552 1-54, looked up) [sweet-tasting protein obtained by recombinant production using the yeast Pichia pastoris] | 5.7 | 0.64 ± 0.03 |  |
| thaumatin | 4.4 | 0.87 ± 0.09 |  |
| B1 |  |  | 33.5 |
